Laboratory results from ChEMBL document CHEMBL5614381, “Farnesyl pyrophosphate synthase inhibitors with antiosteoporosis efficacy in ovariectomized rats: A mixed binding approach beyond bisphosphonates” (Eur J Med Chem, 2024).
Calls of active or inactive are those of the source. No cut-off for these calls is given here.

Tests used:
[1] = target: T1, Farnesyl pyrophosphate synthase (Homo sapiens, UniProt P14324); assay: Inhibition of human recombinant FPPS using IPP as substrate preincubated with enzyme for 15 mins followed by substrate addition and measured after 1 hr
T1 sequence (P14324 whole entry): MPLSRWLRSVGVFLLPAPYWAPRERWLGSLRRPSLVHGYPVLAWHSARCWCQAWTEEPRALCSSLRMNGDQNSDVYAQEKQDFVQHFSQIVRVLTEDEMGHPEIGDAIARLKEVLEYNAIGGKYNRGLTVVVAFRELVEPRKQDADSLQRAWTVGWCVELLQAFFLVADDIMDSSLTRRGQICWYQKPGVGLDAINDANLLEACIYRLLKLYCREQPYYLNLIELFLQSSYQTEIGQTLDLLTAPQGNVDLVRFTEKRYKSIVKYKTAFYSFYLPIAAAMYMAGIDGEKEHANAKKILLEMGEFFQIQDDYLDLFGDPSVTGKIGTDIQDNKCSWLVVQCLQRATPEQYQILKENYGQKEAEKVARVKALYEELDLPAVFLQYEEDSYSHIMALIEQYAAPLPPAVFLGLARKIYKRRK

[2] = system: Rattus norvegicus; assay: Anti-osteoporosis activity against ovariectomized Wistar rat assessed as inhibition of ovariectomy-induced osteoporosis by measuring decrease in urinary calcium level at 7.5 ug/kg, ip administered once a week for 8 weeks following bilateral ovariectomy; format: functional, organism-based; settings: dose 7.5 µg/kg
[3] = system: Rattus norvegicus; assay: Anti-osteoporosis activity against ovariectomized Wistar rat assessed as inhibition of ovariectomy-induced osteoporosis by measuring increase in serum OPG level at 7.5 ug/kg, ip administered once a week for 8 weeks following bilateral ovariectomy relative to ovariectomized control; format: functional; design: scale not given: the % may be the effect or the level left; settings: dose 7.5 µg/kg
[4] = system: Rattus norvegicus; assay: Anti-osteoporosis activity against ovariectomized Wistar rat assessed as inhibition of ovariectomy-induced osteoporosis by measuring decrease in bone-specific isoenzyme of alkaline phosphatase level in serum at 7.5 ug/kg, ip administered once a week for 8 weeks following bilateral ovariectomy; format: functional, organism-based; settings: dose 7.5 µg/kg
[5] = system: Rattus norvegicus; assay: Anti-osteoporosis activity against ovariectomized Wistar rat assessed as inhibition of ovariectomy-induced osteoporosis by measuring decrease in serum phosphate level at 7.5 ug/kg, ip administered once a week for 8 weeks following bilateral ovariectomy; format: functional, organism-based; settings: dose 7.5 µg/kg
[6] = system: Rattus norvegicus; assay: Anti-osteoporosis activity against ovariectomized Wistar rat assessed as inhibition of ovariectomy-induced osteoporosis by measuring increase in serum osteoclacin level at 7.5 ug/kg, ip administered once a week for 8 weeks following bilateral ovariectomy relative to ovariectomized control; format: functional; design: scale not given: the % may be the effect or the level left; settings: dose 7.5 µg/kg
[7] = system: Rattus norvegicus; assay: Anti-osteoporosis activity against ovariectomized Wistar rat assessed as inhibition of ovariectomy-induced osteoporosis by measuring decrease in urinary phosphate level at 7.5 ug/kg, ip administered once a week for 8 weeks following bilateral ovariectomy; format: functional, organism-based; settings: dose 7.5 µg/kg
[8] = system: Rattus norvegicus; assay: Anti-osteoporosis activity against ovariectomized Wistar rat assessed as inhibition of ovariectomy-induced osteoporosis by measuring reduction in serum RANKL level at 7.5 ug/kg, ip administered once a week for 8 weeks following bilateral ovariectomy; format: functional, organism-based; settings: dose 7.5 µg/kg
[9] = system: Rattus norvegicus; assay: Anti-osteoporosis activity against ovariectomized Wistar rat assessed as inhibition of ovariectomy-induced osteoporosis by measuring reduction in serum RANKL/OPG level at 7.5 ug/kg, ip administered once a week for 8 weeks following bilateral ovariectomy relative to ovariectomized control; format: functional; settings: 1344 h, dose 7.5 µg/kg
[10] = system: Rattus norvegicus; assay: Anti-osteoporosis activity against ovariectomized Wistar rat assessed as inhibition of ovariectomy-induced osteoporosis by measuring decrease in serum calcium level at 7.5 ug/kg, ip administered once a week for 8 weeks following bilateral ovariectomy; format: functional, organism-based; settings: dose 7.5 µg/kg
[11] = system: Rattus norvegicus; assay: Anti-osteoporosis activity against ovariectomized Wistar rat assessed as inhibition of ovariectomy-induced osteoporosis by measuring serum estradiol level at 7.5 ug/kg, ip administered once a week for 8 weeks following bilateral ovariectomy; format: functional, organism-based; settings: dose 7.5 µg/kg
[12] = system: Rattus norvegicus; assay: Anti-osteoporosis activity against ovariectomized Wistar rat assessed as inhibition of ovariectomy-induced osteoporosis by measuring decrease in urinary phosphate level at 0.1 to 10 mg/kg, po administered daily for 8 weeks following bilateral ovariectomy; format: functional, organism-based; settings: dose 0.1-10 mg/kg
[13] = system: Rattus norvegicus; assay: (§1) Anti-osteoporosis activity against ovariectomized Wistar rat assessed as inhibition of ovariectomy-induced osteoporosis by measuring increase in serum OPG level at 10 mg/kg, po administered daily for 8 weeks following bilateral ovariectomy relative to ovariectomized control; format: functional; design: scale not given: the % may be the effect or the level left
[14] = system: Rattus norvegicus; assay: Anti-osteoporosis activity against ovariectomized Wistar rat assessed as inhibition of ovariectomy-induced osteoporosis by measuring reduction in serum RANKL/OPG level at 10 mg/kg, po administered daily for 8 weeks following bilateral ovariectomy relative to ovariectomized control; format: functional; settings: 1344 h
[15] = system: Rattus norvegicus; assay: Anti-osteoporosis activity against ovariectomized Wistar rat assessed as inhibition of ovariectomy-induced osteoporosis by measuring increase in bone mineral content at 10 mg/kg, po administered daily for 8 weeks following bilateral ovariectomy; format: functional, organism-based
[16] = system: Rattus norvegicus; assay: Anti-osteoporosis activity against ovariectomized Wistar rat assessed as inhibition of ovariectomy-induced osteoporosis by measuring decrease in serum phosphate level at 1 mg/kg, po administered daily for 8 weeks following bilateral ovariectomy; format: functional, organism-based
[17] = system: Rattus norvegicus; assay: Anti-osteoporosis activity against ovariectomized Wistar rat assessed as inhibition of ovariectomy-induced osteoporosis by measuring increase in bone mineral density at 1 mg/kg, po administered daily for 8 weeks following bilateral ovariectomy; format: functional, organism-based
[18] = system: Rattus norvegicus; assay: as §1, with “decrease in bone-specific isoenzyme of alkaline phosphatase level” for “increase”, “serum” for “serum OPG level”, “to” for “to ovariectomized”; format: functional; settings: 1344 h
[19] = system: Rattus norvegicus; assay: Anti-osteoporosis activity against ovariectomized Wistar rat assessed as inhibition of ovariectomy-induced osteoporosis by measuring serum estradiol level at 0.1 to 10 mg/kg, po administered daily for 8 weeks following bilateral ovariectomy; format: functional, organism-based; settings: dose 0.1-10 mg/kg
[20] = system: Rattus norvegicus; assay: Anti-osteoporosis activity against ovariectomized Wistar rat assessed as inhibition of ovariectomy-induced osteoporosis by measuring decrease in urinary calcium level at 1 mg/kg, po administered daily for 8 weeks following bilateral ovariectomy; format: functional, organism-based
[21] = system: Rattus norvegicus; assay: Anti-osteoporosis activity against ovariectomized Wistar rat assessed as inhibition of ovariectomy-induced osteoporosis by measuring fold increase in serum osteoclacin level at 1 to 10 mg/kg, po administered daily for 8 weeks following bilateral ovariectomy relative to ovariectomized control; format: functional; settings: dose 1-10 mg/kg
[22] = system: Rattus norvegicus; assay: Anti-osteoporosis activity against ovariectomized Wistar rat assessed as inhibition of ovariectomy-induced osteoporosis by measuring reduction in serum RANKL level at 0.1 to 10 mg/kg, po administered daily for 8 weeks following bilateral ovariectomy; format: functional, organism-based; settings: dose 0.1-10 mg/kg

SMILES: COc1cc(C2SP(=S)(Sc3ccccc3)S2)ccc1OCCOc1ccc(C2SP(=S)(Sc3ccccc3)S2)cc1OC (stereo unspecified)
- IC50 [1]: 3.37 µM

SMILES: COc1cc(C(O)P(=O)(OC)OC)ccc1OCCOc1ccc(C(O)P(=O)(OC)OC)cc1OC (stereo unspecified)
- IC50 [1]: 21.4 µM

SMILES: COc1cc(C=S)ccc1OCCOc1ccc(C=S)cc1OC
- IC50 [1]: 22.7 µM

SMILES: COc1cc(C(O)P(=O)(N(C)C)N(C)C)ccc1OCCOc1ccc(C(O)P(=O)(N(C)C)N(C)C)cc1OC (stereo unspecified)
- IC50 [1]: 5.54 µM

SMILES: CCN(CC)P(=O)(C(O)c1ccc(OCCOc2ccc(C(O)P(=O)(N(CC)CC)N(CC)CC)cc2OC)c(OC)c1)N(CC)CC (stereo unspecified)
- IC50 [1]: 2.47 µM

SMILES: CCOC(=O)/C=C/c1ccc(OCCOc2ccc(/C=C/C(=O)OCC)cc2OC)c(OC)c1
- IC50 [1]: 5.98 µM

SMILES: O=P(O)(O)C(O)(Cn1ccnc1)P(=O)(O)O [ZOLEDRONIC ACID ANHYDROUS]
- Activity [2]: inactive
- Activity [3]: 46%
- Activity [4]: Active
- Activity [5]: Active
- Activity [6]: 174%
- Activity [7]: Active
- Activity [8]: inactive
- inhibition in vivo at 0.0075 mg/kg [9]: 38%
- Activity [10]: Active
- Activity [11]: inactive

SMILES: COc1cc(/C=C/C#N)ccc1OCCOc1ccc(/C=C/C#N)cc1OC
- IC50 [1]: 3.22 µM

SMILES: COc1cc(C=O)ccc1OCCOc1ccc(C=O)cc1OC
- IC50 [1]: 12.6 µM

SMILES: COC(=O)/C=C/c1ccc(OCCOc2ccc(/C=C/C(=O)OC)cc2OC)c(OC)c1
- IC50 [1]: 1.24 µM

SMILES: COc1cc(/C=C/C(C)=O)ccc1OCCOc1ccc(/C=C/C(C)=O)cc1OC
- Activity [12]: Active
- Activity [13]: 29%
- inhibition in vivo at 10 mg/kg [14]: 33.3%
- IC50 [1]: 1.11 µM
- Activity [15]: Active
- Activity [16]: Active
- Activity [17]: Active
- inhibition in vivo at 10 mg/kg [18]: 33%
- Activity [19]: inactive
- Activity [20]: Active
- fold change (FC) [21]: 2
- Activity [22]: inactive
